The record followed here is patent publication US20040235873A1, “Antiinflammatoric and antitussive compositions” (priority 2001, published 2004).

Holding throughout (format): in vivo, Hartley male guinea pigs
Test [1] concerns ACh-induced airway contraction in guinea pigs. Nature of the test: Acetylcholine-induced pulmonary inflation pressure change before and after saline inhalation (preliminary test). As to conditions: for PIP increase (ΔPIP) induced by intravenous ACh, Post value / PIP increase (ΔPIP) induced by intravenous ACh, Pre value / Difference between Pre value and Post value of ACh-induced PIP increase: 30 mg/kg to the duodenum prior to saline inhalation; for PIP increase (ΔPIP) induced by intravenous ACh, Post value: after saline inhalation; for PIP increase (ΔPIP) induced by intravenous ACh, Post value / PIP increase (ΔPIP) induced by intravenous ACh, Pre value: mean±standard error of three cases; for PIP increase (ΔPIP) induced by intravenous ACh, Pre value: before saline inhalation; for Difference between Pre value and Post value of ACh-induced PIP increase: paired t-test. As for the experimental part: (§1) Hartley male guinea pigs (from Nippon SLC) were raised at a constant temperature (22 to 23° C.) and a constant humidity (50 to 60%) for 2 weeks, and healthy animals of those having a body weight of from 150 to 250 g were used in the test. The guinea pigs were anesthetized with urethane (1.2 g/kg) and subjected to tracheotomy and cannulation. The tracheal cannula was connected to an artificial respiration device for small animals (Model 7025, UGO BASIL by VARASE), and artificial respiration (breathing rate, 60/min; 10 ml/kg) was performed. As an airway contraction index thereof, the pulmonary inflation pressure (hereinafter abbreviated to […], its unit being cmH2O) of the test animal was measured via a pressure transducer (TP-603, by Nippon Kodensha). In addition, a cannula was inserted into the carotid […] of the test animal, and the blood pressure through it was also measured via a pressure transducer (Life KitDX-360, by Nippon Kodensha). After the operation, the guinea pigs were left as such for about 5 minutes, and after the base PIP thereof was stabilized, the test with them was started. 50 μg/kg acetylcholine (hereinafter referred to as ACh, by Sigma) was intravenously administered to each test animal to induce airway contraction therein. After the elevated PIP was lowered to the base line thereof, ACh of the same concentration was again intravenously administered. This operation was repeated until the PIP increase (ΔPIP) was stabilized. After the ΔPIP stabilization was confirmed, ACh was intravenously administered
(§2) (30 μg/kg or 40 μg/kg), and the value ΔPIP in this stage was referred to as a Pre value. 30 minutes thereafter, each test animal was made to inhale 0.1 µg/ml of LTD4 (by Funakoshi) for 30 seconds via an ultrasonic nebulizer (NE-U12, by Omron), and after 15 minutes, ACh was again intravenously administered (30 μg/kgor40μg/kg) to each test animal to induce airway contraction therein. The value ΔPIP in this stage was rendered as a Post value. Relative to those of the LTD4 administration group, the animals of the control group were made to inhale saline in place of LTD4. The Post value and the Pre value were compared with each other in the control group and the LTD4 administration group, and the difference was an index of airway hypersensitiveness expression.
(§3) 30 minutes before the start of the LTD 4 inhalation, a test substance was administered to the duodenum of each test animal. In place of the test substance, 0.5% methyl cellulose (hereinafter abbreviated to MC) was administered to the animals of the control group relative to those of the test substance-administration group.
The data obtained were expressed as the mean value±standard error thereof. A statistical analysis soft SAS was used for significance test. For significance test of two groups, paired t-test was carried out (FIG. 1, FIG. 2); and for comparison test of multiple groups, Bartlet test was followed by 1-way ANOVA and Dunnett's multiple comparison test. In every test, p<0.05 indicates a significant difference.
The PIP increase (Pre value, white column) induced by the intravenous ACh administration (40 µg/kg) was 8.40±0.76 cmH2O; while the PIP increase (Post value, black column) after the inhalation of saline, as used for a solvent for LTD4 was 8.30±1.07cmH2.
Orotic acid and zinc orotate each were suspended in 0.5% MC just before use.
Orotic acid, zinc orotate (30 mg/kg) or 0.5% MC was intraduodenally administered 30 minutes before the inhalation of saline. The data obtained are expressed as the mean value±standard error of three cases. N.S. (not significant) indicates no statistically significant difference.

For test [2], the system named is LTD4-induced airway hypersensitiveness in guinea pigs. Nature of the test: LTD4-induced airway hypersensitive reaction. As to conditions: for ID50 of airway hypersensitiveness inhibition: intraduodenal administration 30 minutes before LTD4 inhalation, guinea pigs; for Airway hypersensitiveness inhibition versus control group: orotic acid 10 to 30 mg/kg, zinc orotate 10, 30 mg/kg to the duodenum. As for the experimental part:
This was to confirm the presence or absence of antiasthmatic effect of orotic acid and zinc orotate. Concretely, the effect of orotic acid and zinc orotate against leukotriene D4 (hereinafter abbreviated to LTD4)-induced airway hypersensitive reaction was investigated in the manner described below.
Expression of LTD4-induced airway hypersensitiveness was carried out according to the method of Sato et al [Clinical and Experimental Allergy, 26, 957-963 (1996)], as shown below:
as §1, §2, §3
The data obtained were expressed as the mean value±standard error thereof. A statistical analysis soft SAS was used for significance test. For significance test of two groups, paired t-test was carried out (FIG. 1, FIG. 2); and for comparison test of multiple groups, Bartlet test was followed by 1-way ANOVA and Dunnett's multiple comparison test. […]

Test [3] relates to ovalbumin (OA)-sensitized guinea pigs. Nature of the test: Cell invasion in bronchovesicular washing fluid (BALF) of ovalbumin-sensitized guinea pigs after antigen induction. As to conditions: for Number of eosinophils invaded in BALF / Number of the total cells invaded in BALF: 24 hours after induction. As for the experimental part: The present test was carried out according to the method mentioned below, with reference to the method of Lagente et al [Clin. Exp. Allergy, 23, 1002-1010 (1993)] and the method of Dunn et al [Am. Rev. Resp. Dis., 137, 541-547 ([…])].
Hartley male guinea pigs (from Nippon Charles River) were raised at a constant temperature (22 to 23° C.) and a constant humidity (50 to 60%) and healthy animals of those having a body weight of from 350 to 450 g were used in the test. The guinea pigs were put in a plastic box (30×50×30 cm), and made to inhale 2 mg/ml of a solution of ovalbumin (hereinafter sometimes abbreviated to OA, from Sigma Aldrich) for30minutes, twice at an interval of 48 hours for […] sensitization. An ultrasonic nebulizer (NE-U12, by Omron) was used for the inhalation. Antigen induction in the test animals was carried out 13 to 15 days after the final sensitization, in the same plastic box as that for the sensitization. For it, the test animals were made to inhale 1% (w/v) OA solution for 15 minutes to induce reaction. Those of the control group with no OA inhalation were made to inhale saline.
In this stage, a histamine H1-receptor antagonist, pyrilamine (by Sigma Aldrich) was intravenously administered (2 mg/kg) to the test animals 30 minutes before the antigen induction, for evading animal death owing to anaphylactic shock. Orotic acid, zinc orotate and a PDE4 inhibitor (rolipram, obtained through chemical synthesis) were orally administered one hour before the antigen induction. To those of the control group not administered with orotic acid, zinc orotate or rolipram, 0.5% (w/v) MC solution was administered.
24 to 72 hours after the antigen induction, the bronchovesicles of the test animals were washed (BAL). Namely, the sensitized guinea pigs were anesthetized with pentobarbital (intravenous-administration, 100 mg/kg), and 5 ml of saline was injected into the guinea pigs via a tracheal cannula through a disposable syringe (by Terumo). In about 5 seconds, the saline injected into the guinea pigs was recovered. This operation was repeated twice to collect the bronchovesicular washing fluid (BALF). BALF was centrifuged at 2500 rpm (1250 ×g) at 4° C. for 10 minutes. The supernatant was removed by suction, and the deposited cells were suspended in one ml of saline. In the suspension, the number of all leucocytes was counted with an automatic cell counter (Celltec MEK-4300, by Nippon Kodensha). A part of the cells were formed into a smear with Cytospin III (by Shand on Southern Instruments). […] Specifically, eosinophils (Eos), neutrophils (Neu), macrophages (Mac), lymphocytes (Lym) and other cells (Other) were counted, and their ratio was calculated. The number of the respective cells was calculated by multiplying the number of all leucocytes by the ratio of the cells counted in the fraction.
The data obtained were expressed as the mean value±standard error thereof. A statistical analysis soft SAS was used for significance test. For significance test of the two groups, Student's t-test was carried out; and for comparison test of multiple groups, Bartlet test was followed by 1-way ANOVA and Dunnett's multiple comparison test. […]
Orotic acid was orally administered 1 hour before the OA inhalation. The data obtained are expressed as the mean value ±standard error of 9 or 10 cases.
Zinc orotate was orally administered 1 hour before the OA inhalation. The data obtained are expressed as the mean value±standard error of 9 or 10 cases. […]

Where [4] appears, read: 100 mg/kg orally 1 hour before OA antigen induction.
Setting [5] is: 100 or 300 mg/kg orally 1 hour before OA antigen induction.

As for `O=C(O)c1cc(=O)[nH]c(=O)[nH]1` [orotic acid, uracil-4-carboxylic acid], in test [1], the “PIP increase (ΔPIP) induced by intravenous ACh, Post value” turned out to be 7.33±1.20 cmH2O; the “PIP increase (ΔPIP) induced by intravenous ACh, Pre value” turned out to be 7.50±1.04 cmH2O; the “Difference between Pre value and Post value of ACh-induced PIP increase” value is “no significant difference”. In test [1] (FIG. 1, 30 mg/kg intraduodenal), the “Influence on ACh-induced airway contraction” value was “did not have any influence on airway contraction”. For the same molecule, the “Statistical significance of airway hypersensitiveness inhibition” value in test [2] (dose of 30 mg/kg to the duodenum, versus MC control, p<0.05) was “showed a statistical significance”. For the same molecule, in test [2], the “ID50 of airway hypersensitiveness inhibition” value was 20.1 mg/kg and the “Airway hypersensitiveness inhibition versus control group” value is listed as “showed airway hypersensitiveness inhibition that depends on the increase in the dose”. In test [3] (setting [4]), the “Number of eosinophils invaded in BALF” value is on record as “decreased” and the “Number of the total cells invaded in BALF” value is listed as “decreased”.

On to `COc1ccc(C2CNC(=O)C2)cc1OC1CCCC1` (centres unmarked) [rolipram, reference compound], for which the “Effect against cell invasion, 24 hours compared with 48 hours after antigen induction” value in test [3] (orally one hour before antigen induction, not illustrated) was “any significant difference in the cell invasion was not found between 24 hours and 48 hours”.

With zinc orotate, in test [1], the “PIP increase (ΔPIP) induced by intravenous ACh, Post value” was 8.00±1.44 cmH2O; the “PIP increase (ΔPIP) induced by intravenous ACh, Pre value” worked out at 7.67±1.20 cmH2O; the “Difference between Pre value and Post value of ACh-induced PIP increase” value is on record as “no significant difference”. Moreover, in test [2], the “ID50 of airway hypersensitiveness inhibition” value is 16.2 mg/kg and the “Airway hypersensitiveness inhibition versus control group” value was “showed airway hypersensitiveness inhibition that depends on the increase in the dose”. Also, in test [3] (setting [5]), the “Number of eosinophils invaded in BALF” value is given as “decreased” and the “Number of the total cells invaded in BALF” value is recorded as “decreased”.
